Measured values published in PubChem BioAssay AID2060899 (Molecular Pharmacology Branch, DTP, NCI, 2025).

Tested on: 565726-208-R1-J5-PDC complex spheroids, growth inhibition
Test: Anticancer human tumor 565726-208-R1-J5-PDC patient-derived pancreatic adenocarcinoma cell line growth inhibition [RAS]
Details: for IC50: curve of first compound; for viability, T/C: stronger effect = lower value
Procedure, shortened: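 Agents were tested in combination matrices in half-log decrements from a top concentration at or near clinical Cmax (10 microM if undetermined). Targets were multi-cell spheroids of tumour lines plus HUVEC and MSC stromal cells.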

[1] = second compound 0.000949 µM, first compound 0.0316 µM
[2] = second compound 0.000949 µM, first compound 0.1 µM
[3] = second compound 0.000949 µM, first compound 0.316 µM
[4] = second compound 0.000949 µM, first compound 1 µM
[5] = second compound 0.003 µM, first compound 0.0316 µM
[6] = second compound 0.003 µM, first compound 0.1 µM
[7] = second compound 0.003 µM, first compound 0.316 µM
[8] = second compound 0.003 µM, first compound 1 µM
[9] = second compound 0.00949 µM, first compound 0.0316 µM
[10] = second compound 0.00949 µM, first compound 0.1 µM
[11] = second compound 0.00949 µM, first compound 0.316 µM
[12] = second compound 0.00949 µM, first compound 1 µM
[13] = second compound 0.03 µM, first compound 0.0316 µM
[14] = second compound 0.03 µM, first compound 0.1 µM
[15] = second compound 0.03 µM, first compound 0.316 µM
[16] = second compound 0.03 µM, first compound 1 µM
[17] = second compound 0.0949 µM, first compound 0.0316 µM
[18] = second compound 0.0949 µM, first compound 0.1 µM
[19] = second compound 0.0949 µM, first compound 0.316 µM
[20] = second compound 0.0949 µM, first compound 1 µM
[21] = second compound 0.3 µM, first compound 0.0316 µM
[22] = second compound 0.3 µM, first compound 0.1 µM
[23] = second compound 0.3 µM, first compound 0.316 µM
[24] = second compound 0.3 µM, first compound 1 µM
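Further: spheroids exposed to compounds for seven days before readout.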
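Wherever viability, T/C is given: 100% = DMSO vehicle control viability.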

CC(Nc1ccc2c(c1)OCCn1cc(N3C(=O)OCC3C(F)F)nc1-2)C(N)=O (stereo unspecified) + CCn1c(-c2cc(N3CCN(C)CC3)cnc2C(C)OC)c2c3cc(ccc31)-c1csc(n1)CC(NC(=O)C1CC1C)C(=O)N1CCCC(N1)C(=O)OCC(C)(C)C2
IC50 (second compound 0.000949 µM): 316 nM
IC50 (second compound 0.003 µM): < 31.6 nM
IC50 (second compound 0.00949 µM): < 31.6 nM
IC50 (second compound 0.03 µM): < 31.6 nM
IC50 (second compound 0.0949 µM): < 31.6 nM
IC50 (second compound 0.3 µM): < 31.6 nM
viability, T/C [1]: 62.7%
viability, T/C [2]: 49%
viability, T/C [3]: 50.6%
viability, T/C [4]: 47.7%
viability, T/C (second compound 0.000949 µM, first compound 3.16 µM): 40.2%
viability, T/C (second compound 0.000949 µM, first compound 10 µM): 32.9%
viability, T/C [5]: 49.7%
viability, T/C [6]: 48.4%
viability, T/C [7]: 39.7%
viability, T/C [8]: 37.2%
viability, T/C (second compound 0.003 µM, first compound 3.16 µM): 36.3%
viability, T/C (second compound 0.003 µM, first compound 10 µM): 24.2%
viability, T/C [9]: 44.5%
viability, T/C [10]: 37.4%
viability, T/C [11]: 32.9%
viability, T/C [12]: 29.6%
viability, T/C (second compound 0.00949 µM, first compound 3.16 µM): 26.4%
viability, T/C (second compound 0.00949 µM, first compound 10 µM): 19.5%
viability, T/C [13]: 31.9%
viability, T/C [14]: 26.9%
viability, T/C [15]: 26.8%
viability, T/C [16]: 24.9%
viability, T/C (second compound 0.03 µM, first compound 3.16 µM): 22.4%
viability, T/C (second compound 0.03 µM, first compound 10 µM): 13.3%
viability, T/C [17]: 24.8%
viability, T/C [18]: 24.6%
viability, T/C [19]: 23.1%
viability, T/C [20]: 18.5%
viability, T/C (second compound 0.0949 µM, first compound 3.16 µM): 18.4%
viability, T/C (second compound 0.0949 µM, first compound 10 µM): 12.1%
viability, T/C [21]: 22.6%
viability, T/C [22]: 20.9%
viability, T/C [23]: 20.1%
viability, T/C [24]: 19.3%
viability, T/C (second compound 0.3 µM, first compound 3.16 µM): 15.6%
viability, T/C (second compound 0.3 µM, first compound 10 µM): 10.7%

CC1(C)CCC(Nc2ncc(C(F)(F)F)c(-c3c[nH]c4c(P(C)(C)=O)c(C#N)ccc34)n2)CN1 (stereo unspecified) + CCn1c(-c2cccnc2C(C)OC)c2c3cc(ccc31)N1CCOC(CC(NC(=O)C(C(C)C)N(C)C(=O)C3(F)CCN(C(=O)C#CC(C)(C)N(C)C)CC3)C(=O)N3CCCC(N3)C(=O)OCC(C)(C)C2)C1
IC50 (second compound 0.000949 µM): 3.9 nM
IC50 (second compound 0.003 µM): 4.09 nM
IC50 (second compound 0.00949 µM): 3.98 nM
IC50 (second compound 0.03 µM): 3.25 nM
IC50 (second compound 0.0949 µM): 2.54 nM
IC50 (second compound 0.3 µM): 1.09 nM
viability, T/C (second compound 0.000949 µM, first compound 0.000949 µM): 86%
viability, T/C (second compound 0.000949 µM, first compound 0.003 µM): 54%
viability, T/C (second compound 0.000949 µM, first compound 0.00949 µM): 37.6%
viability, T/C (second compound 0.000949 µM, first compound 0.03 µM): 32.1%
viability, T/C (second compound 0.000949 µM, first compound 0.0949 µM): 32.2%
viability, T/C (second compound 0.000949 µM, first compound 0.3 µM): 29.5%
viability, T/C (second compound 0.003 µM, first compound 0.000949 µM): 89%
viability, T/C (second compound 0.003 µM, first compound 0.003 µM): 55%
viability, T/C (second compound 0.003 µM, first compound 0.00949 µM): 36.5%
viability, T/C (second compound 0.003 µM, first compound 0.03 µM): 29.2%
viability, T/C (second compound 0.003 µM, first compound 0.0949 µM): 29.5%
viability, T/C (second compound 0.003 µM, first compound 0.3 µM): 28.7%
viability, T/C (second compound 0.00949 µM, first compound 0.000949 µM): 83.2%
viability, T/C (second compound 0.00949 µM, first compound 0.003 µM): 55.4%
viability, T/C (second compound 0.00949 µM, first compound 0.00949 µM): 33.5%
viability, T/C (second compound 0.00949 µM, first compound 0.03 µM): 27.9%
viability, T/C (second compound 0.00949 µM, first compound 0.0949 µM): 26.9%
viability, T/C (second compound 0.00949 µM, first compound 0.3 µM): 27.6%
viability, T/C (second compound 0.03 µM, first compound 0.000949 µM): 76%
viability, T/C (second compound 0.03 µM, first compound 0.003 µM): 50.9%
viability, T/C (second compound 0.03 µM, first compound 0.00949 µM): 36.4%
viability, T/C (second compound 0.03 µM, first compound 0.03 µM): 29%
viability, T/C (second compound 0.03 µM, first compound 0.0949 µM): 28.6%
viability, T/C (second compound 0.03 µM, first compound 0.3 µM): 29.3%
viability, T/C (second compound 0.0949 µM, first compound 0.000949 µM): 69.3%
viability, T/C (second compound 0.0949 µM, first compound 0.003 µM): 46.7%
viability, T/C (second compound 0.0949 µM, first compound 0.00949 µM): 30%
viability, T/C (second compound 0.0949 µM, first compound 0.03 µM): 26.9%
viability, T/C (second compound 0.0949 µM, first compound 0.0949 µM): 29%
viability, T/C (second compound 0.0949 µM, first compound 0.3 µM): 32.9%
viability, T/C (second compound 0.3 µM, first compound 0.000949 µM): 52%
viability, T/C (second compound 0.3 µM, first compound 0.003 µM): 35.6%
viability, T/C (second compound 0.3 µM, first compound 0.00949 µM): 27.4%
viability, T/C (second compound 0.3 µM, first compound 0.03 µM): 26.7%
viability, T/C (second compound 0.3 µM, first compound 0.0949 µM): 27.8%
viability, T/C (second compound 0.3 µM, first compound 0.3 µM): 26.5%

O=C(c1ccc(F)c(F)c1Nc1ccc(I)cc1F)N1CC(O)([C@@H]2CCCCN2)C1 + CCn1c(-c2cc(N3CCN(C)CC3)cnc2C(C)OC)c2c3cc(ccc31)-c1csc(n1)CC(NC(=O)C1CC1C)C(=O)N1CCCC(N1)C(=O)OCC(C)(C)C2
IC50 (second compound 0.000949 µM): 103 nM
IC50 (second compound 0.003 µM): 10.2 nM
IC50 (second compound 0.00949 µM): < 3.16 nM
IC50 (second compound 0.03 µM): < 3.16 nM
IC50 (second compound 0.0949 µM): < 3.16 nM
IC50 (second compound 0.3 µM): < 3.16 nM
viability, T/C (second compound 0.000949 µM, first compound 0.00316 µM): 66.8%
viability, T/C (second compound 0.000949 µM, first compound 0.01 µM): 59.9%
viability, T/C [1]: 63.8%
viability, T/C [2]: 49.5%
viability, T/C [3]: 29.4%
viability, T/C [4]: 9.76%
viability, T/C (second compound 0.003 µM, first compound 0.00316 µM): 55.3%
viability, T/C (second compound 0.003 µM, first compound 0.01 µM): 49.6%
viability, T/C [5]: 40.7%
viability, T/C [6]: 25.4%
viability, T/C [7]: 14%
viability, T/C [8]: 6.79%
viability, T/C (second compound 0.00949 µM, first compound 0.00316 µM): 39.3%
viability, T/C (second compound 0.00949 µM, first compound 0.01 µM): 36.5%
viability, T/C [9]: 27.8%
viability, T/C [10]: 16.7%
viability, T/C [11]: 7.84%
viability, T/C [12]: 4.42%
viability, T/C (second compound 0.03 µM, first compound 0.00316 µM): 23.9%
viability, T/C (second compound 0.03 µM, first compound 0.01 µM): 23.5%
viability, T/C [13]: 18.2%
viability, T/C [14]: 8.87%
viability, T/C [15]: 4.75%
viability, T/C [16]: 4.55%
viability, T/C (second compound 0.0949 µM, first compound 0.00316 µM): 17.6%
viability, T/C (second compound 0.0949 µM, first compound 0.01 µM): 12.8%
viability, T/C [17]: 8.13%
viability, T/C [18]: 5.18%
viability, T/C [19]: 4.88%
viability, T/C [20]: 4.22%
viability, T/C (second compound 0.3 µM, first compound 0.00316 µM): 14.9%
viability, T/C (second compound 0.3 µM, first compound 0.01 µM): 12.6%
viability, T/C [21]: 6.29%
viability, T/C [22]: 4%
viability, T/C [23]: 3.7%
viability, T/C [24]: 3.03%
